Laboratory results from BindingDB's records for doi:10.7270/Q2ZP44H3 (Vanderbilt Screening Center For Gpcrs, Ion Channels and …, 2009).

Biological target: T1, Solute carrier family 12 member 5 (Homo sapiens, UniProt Q9H2X9)
T1 sequence (Q9H2X9 whole entry): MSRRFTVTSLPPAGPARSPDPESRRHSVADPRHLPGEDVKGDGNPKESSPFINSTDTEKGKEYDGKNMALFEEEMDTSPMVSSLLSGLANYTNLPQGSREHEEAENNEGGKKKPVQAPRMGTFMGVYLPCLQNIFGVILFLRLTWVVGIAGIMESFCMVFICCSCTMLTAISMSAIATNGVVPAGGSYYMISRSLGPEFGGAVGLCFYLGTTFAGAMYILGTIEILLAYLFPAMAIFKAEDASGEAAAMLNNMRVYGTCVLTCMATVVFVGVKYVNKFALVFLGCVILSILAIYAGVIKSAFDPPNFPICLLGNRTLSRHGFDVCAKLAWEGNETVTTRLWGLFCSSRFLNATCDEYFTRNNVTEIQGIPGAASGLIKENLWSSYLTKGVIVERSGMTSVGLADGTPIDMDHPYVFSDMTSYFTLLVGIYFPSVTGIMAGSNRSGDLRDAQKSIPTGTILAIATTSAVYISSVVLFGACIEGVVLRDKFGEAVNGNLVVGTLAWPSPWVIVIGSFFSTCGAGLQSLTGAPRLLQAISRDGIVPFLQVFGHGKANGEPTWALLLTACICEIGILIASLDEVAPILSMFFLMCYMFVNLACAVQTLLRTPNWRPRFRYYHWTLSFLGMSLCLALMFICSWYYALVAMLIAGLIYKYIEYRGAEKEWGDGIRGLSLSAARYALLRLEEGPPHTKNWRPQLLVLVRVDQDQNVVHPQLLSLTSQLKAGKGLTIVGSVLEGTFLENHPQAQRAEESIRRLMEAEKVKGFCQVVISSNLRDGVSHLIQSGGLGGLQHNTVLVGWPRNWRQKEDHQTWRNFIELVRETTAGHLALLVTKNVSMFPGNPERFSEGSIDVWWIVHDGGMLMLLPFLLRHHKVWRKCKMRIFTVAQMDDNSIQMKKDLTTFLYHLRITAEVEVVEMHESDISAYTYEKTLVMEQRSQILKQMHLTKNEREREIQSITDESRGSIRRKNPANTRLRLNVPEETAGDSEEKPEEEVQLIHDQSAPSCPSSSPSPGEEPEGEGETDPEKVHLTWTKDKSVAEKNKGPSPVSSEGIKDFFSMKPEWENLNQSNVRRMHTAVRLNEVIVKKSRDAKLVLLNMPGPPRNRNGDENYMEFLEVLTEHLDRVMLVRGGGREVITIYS
Test: KCC2 and NKCC1 inhibition by rubidium flux, cell-based, NKCC1 counter-screen (AID 1734)

IC50: 0.3 µM
SMILES: CCOc1ccc(-n2c(O)c3c(c2O)C(C=Cc2ccccc2)c2sc(=O)[nH]c2S3)cc1 (stereo unspecified)
